Laboratory results reported in patent US20120070411A1, “SUBSTITUTED NUCLEOTIDE ANALOGS” (Alios BioPharma, Inc., priority 2010, published 2012).

What follows are molecules tested on HCV genotype 1b HCV replicon harbored in Huh7 cells (assay: Combination testing with compound A10 in HCV replicon (CalcuSyn CI and MacSynergy II synergy volume)). Settings: combination of compound A10 with the listed compound; MacSynergy II, Bliss independence; 25-100 synergistic, >100 strongly synergistic.
Assay type: cell-based
Experimental: Two or more test compounds were tested in combination with each other using an HCV genotype 1b HCV replicon harbored in Huh7 cells with a stable luciferase (LUC) reporter. Cells were cultured under standard conditions in Dulbecco's modified Eagle's medium (DMEM; Mediatech Inc, Herndon, Va.) containing 10% heat-inactivated fetal bovine serum (FBS; Mediatech Inc, Herndon, Va.) 2 mM L-glutamine, and nonessential amino acids (JRH Biosciences). HCV replicon cells were plated in a 96-well plate at a density of 10^4 cells per well in DMEM with 10% FBS. […] The cells were incubated with no compound as a control, with the test compounds, or the combination of compounds for 72 h. The direct effects of the combination of the test compounds were examined using a luciferase (LUC) based reporter as determined by the Bright-Glo Luciferase Assay (Promega, Madison, Wis.). Dose-response curves were determined for individual compounds and fixed ratio combinations of two or more test compounds.
The effects of test compound combinations were evaluated by two separate methods. In the Loewe additivity model, the experimental replicon data was analyzed by using CalcuSyn (Biosoft, Ferguson, Mo.), a computer program based on the method of Chou and Talalay. The program uses the experimental data to calculate a combination index (CI) value for each experimental combination tested. A CI value of <1 indicates a synergistic effect, a CI value of 1 indicates an additive effect, and a CI value of >1 indicates an antagonistic effect.
The second method utilized for evaluating combination effects used a program called MacSynergy II. MacSynergy II software was kindly provided by Dr. M. Prichard (University of Michigan). The Prichard Model allows for a three-dimensional examination of drug interactions and a calculation of the synergy volume (units: μM^2%) generated from running the replicon assay using a checkerboard combination of two or more inhibitors. The volumes of synergy (positive volumes) or antagonism (negative volumes) represent the relative quantity of synergism or antagonism per change in the concentrations of the two drugs. Synergy and antagonism volumes are defined based on the Bliss independence model. In this model, synergy volumes of less than −25 indicate antagonistic interactions, volumes in the −25-25 range indicate additive behavior, volumes in the 25-100 range indicate synergistic behavior and volumes>100 indicate strong synergistic behavior.

| Molecule | Synergy Volume |
| --- | --- |
| COc1ccc2c(O[C@@H]3C[C@H]4C(=O)N[C@]5(C(=O)O)C[C@H]5/C=C\CCCCC[C@H](NC(=O)OC5CCCC5)C(=O)N4C3)cc(-c3csc(NC(C)C)n3)nc2c1 [BILN-2061] | 12 μM^2% |
| COC(=O)N[C@H](C(=O)N1CCC[C@H]1c1nc(-c2ccc(-c3ccc(-c4c[nH]c([C@@H]5CCCN5C(=O)[C@@H](NC(=O)OC)C(C)C)n4)cc3)cc2)c[nH]1)C(C)C [BMS-790052] | 25 μM^2% |
| CCc1cc(CC[C@]2(C3CCCC3)CC(O)=C(Cc3nc4nc(C)cc(C)n4n3)C(=O)O2)cc(CC)n1 [Filibuvir, FILIBUVIR] | 38 μM^2% |
| Fc1ccccc1-c1nc2ccn(Cc3ccc(-c4ccc(C(F)(F)F)cc4C(F)(F)F)nn3)cc-2n1 [GS-9190] | 112 μM^2% |
| CNC(=O)c1c(-c2ccc(F)cc2)oc2cc(N(CCO)S(C)(=O)=O)c(C3CC3)cc12 [HCV-796] | 35 μM^2% |
| COc1nc(N)nc2c1ncn2[C@@H]1O[C@H](COP(=O)(N[C@@H](C)C(=O)OCC(C)(C)C)Oc2cccc3ccccc23)[C@@H](O)[C@@]1(C)O (some centres unmarked) [INX-189] | 31 μM^2% |
| CC(C)(C)OC(=O)N[C@H]1CCCCC/C=C\[C@@H]2C[C@@]2(C(=O)NS(=O)(=O)C2CC2)NC(=O)[C@@H]2C[C@@H](OC(=O)N3Cc4cccc(F)c4C3)CN2C1=O [ITMN-191, DANOPREVIR] | 39 μM^2% |
| CCOc1nc(N)nc2c1ncn2[C@@H]1O[C@@H]2COP(=O)(OC(C)C)O[C@H]2[C@@]1(C)F (some centres unmarked) [PSI-938] | 36 μM^2% |
| C[C@@]1(F)[C@H](O)[C@@H](CO)O[C@H]1n1ccc(N)nc1=O [PSI-6130] | 21 μM^2% |
| CC(C)OC(=O)[C@H](C)NP(=O)(OC[C@H]1O[C@@H](n2ccc(=O)[nH]c2=O)[C@](C)(F)[C@@H]1O)Oc1ccccc1 (some centres unmarked) [PSI-7851] | 14 μM^2% |
| NC(=O)c1ncn([C@@H]2O[C@H](CO)[C@@H](O)[C@H]2O)n1 [Ribavirin, ribavirin] | 0 μM^2% |
| COc1ccc2c(O[C@@H]3C[C@H]4C(=O)N[C@]5(C(=O)NS(=O)(=O)C6CC6)C[C@H]5/C=C\CCCCN(C)C(=O)[C@@H]4C3)cc(-c3nc(C(C)C)cs3)nc2c1C [TMC-435] | 104 μM^2% |
| CC(C)(C)C#Cc1cc(N(C(=O)[C@H]2CC[C@H](C)CC2)[C@H]2CC[C@H](O)CC2)c(C(=O)O)s1 [VX-222] | 52 μM^2% |
| CCC[C@H](NC(=O)[C@@H]1[C@H]2CCC[C@H]2CN1C(=O)[C@@H](NC(=O)[C@@H](NC(=O)c1cnccn1)C1CCCCC1)C(C)(C)C)C(=O)C(=O)NC1CC1 [VX-950, Telaprevir] | 34 μM^2% |
| IFN-Lambda 1 (protein, UniProt Q8IU54 20-200, looked up) Interferon lambda-1: GPVPTSKPTTTGKGCHIGRFKSLSPQELASFKKARDALEESLKLKNWSCSSPVFPGNWDLRLLQVRERPVALEAELALTLKVLEAAAGPALEDVLDQPLHTLHHILSQLQACIQPQPTAGPRPRGRLHHWLHRLQEAPKKESAGCLEASVTFNLFRLLTRDLKYVADGNLCLRTSTHPEST | 43 μM^2% |
| IFN-Lambda 2 (protein, UniProt Q8IZJ0 26-200, looked up) Interferon lambda-2: VPVARLHGALPDARGCHIAQFKSLSPQELQAFKRAKDALEESLLLKDCRCHSRLFPRTWDLRQLQVRERPMALEAELALTLKVLEATADTDPALVDVLDQPLHTLHHILSQFRACIQPQPTAGPRTRGRLHHWLYRLQEAPKKESPGCLEASVTFNLFRLLTRDLNCVASGDLCV | 31 μM^2% |
| IFN-Lambda 3 (protein, UniProt Q8IZI9 22-196, looked up) Interferon lambda-3: VPVARLRGALPDARGCHIAQFKSLSPQELQAFKRAKDALEESLLLKDCKCRSRLFPRTWDLRQLQVRERPVALEAELALTLKVLEATADTDPALGDVLDQPLHTLHHILSQLRACIQPQPTAGPRTRGRLHHWLHRLQEAPKKESPGCLEASVTFNLFRLLTRDLNCVASGDLCV | 33 μM^2% |
